Data published in a melting point compilation (Tetko et al.; mined from patent text by program, amines drawn as free bases though some values may be those of a salt).

First: ClCCCOc1ccc(SCCCCl)cc1
Second: CCCCc1c(C=O)ccc2cc(OC)ccc12
The melting point of the first is higher: 112 °C for the first, 56 to 57 °C for the second.

First: ClCc1nc(Cl)c2ccsc2n1
Second: Cc1c(Cl)c(Cl)c(Cl)c(Cl)c1CCl
The melting point of the first is lower: 66 to 68 °C for the first, 102 to 103 °C for the second.

First: CCOC(=O)c1nnc(CNC(=O)c2cc3ccccc3[nH]2)n1-c1sc(CC)cc1C(=O)c1ccccc1Cl
Second: Cc1ccccc1C[C@H](C(=O)Nc1nc2ccccc2o1)c1ccc(S(C)(=O)=O)cc1
The melting point of the first is higher: 233 to 235 °C for the first, 99 to 102 °C for the second.

First: Nc1ccc2oc3c(c2c1)CCCCCC3
Second: CC(=O)Nc1sc2c(c1C(=O)c1ccccc1)CCCC2
The melting point of the first is lower: 97 to 98 °C for the first, 116 to 119 °C for the second.

First: c1ccc2c(c1)Cc1cc(C3(Cn4ccnc4)OCCO3)ccc1-2
Second: O=C(CCc1cc(-c2ccccc2)nc2ccccc12)N1CCCCC1
The melting point of the first is higher: 163 to 166 °C for the first, 110 °C for the second.

First: Cc1c(C)c(N2CCN(c3ccnn3C)CC2)c(C)c2c1OC(C)(C)C2
Second: COc1cc(N2CCN(CCc3coc4ccc(F)cc34)CC2)c2ncccc2c1
The melting point of the first is higher: 126 to 128 °C for the first, 80 °C for the second.

First: CC(c1ccccc1N1CCCC1)C(C(N)=O)c1ccc(C(=O)O)cc1 (configuration not stated)
Second: NS(=O)(=O)c1ccccc1C(=S)N1CCCC1
The melting point of the first is lower: 155 to 157 °C for the first, 186 to 187 °C for the second.

Compared with `Nc1ccc(Br)cc1C(=O)c1ccccc1`, `O=C(c1ccccc1)c1cnc2c(n1)CCCC2` is lower in melting point: 109 to 110 °C for the first, 61.5 to 63.5 °C for the second.

First: CCCc1c[nH]c2cc(CO)ccc12
Second: OCCc1c2ccccc2cc2ccccc12
The melting point of the first is lower: 68 to 71 °C for the first, 85 to 87 °C for the second.

First: C=CC(=O)Nc1cccc2c1sc1c(Nc3cccc(Br)c3)c(C#N)cnc12
Second: O=C(c1cccc(NC(=O)c2ccn3c2CSC3c2cccnc2)c1)c1ccccn1 (configuration not stated)
The melting point of the first is higher: 286 to 287 °C for the first, 165 °C for the second.

First: COCCNc1nc2ccccc2n(-c2ccc(Cl)cc2)c1=O
Second: COc1ccc(CCCON2CCC(C(=O)c3nc4ccccc4s3)CC2)cc1
The melting point of the first is higher: 151 to 152 °C for the first, 114 to 115 °C for the second.

First: Nc1cc(O)c(C(=O)NCC2CN(Cc3ccccc3)CCO2)cc1Cl (configuration not stated)
Second: O=C(NCCSCc1cccc(I)c1)c1c(Cl)cccc1Cl
The melting point of the first is higher: 153 to 155 °C for the first, 75 to 78 °C for the second.

First: O=[N+]([O-])c1cc2nc(O)c(O)nc2c2[nH]ncc12
Second: O=c1cc(-c2ccc([N+](=O)[O-])cc2)oc2ncccc12
The melting point of the first is higher: greater than 300 °C for the first, 261 to 263 °C for the second.

Compared with `Cc1nc(-c2nn(Cc3ccccc3F)c3ccccc23)oc1CO`, `CC(C)Oc1cc(CCCOc2ncccc2CC(=O)O)n(Cc2ccc(Cl)cc2Cl)n1` is lower in melting point: 144 °C for the first, 88 to 90 °C for the second.

First: O=Cc1cccn1-c1ncccc1[N+](=O)[O-]
Second: COCOc1nn(-c2ccccc2)cc1C=O
The melting point of the first is higher: 122 to 125 °C for the first, 106 to 107 °C for the second.

Compared with `CCc1cc(NC(=O)N2CCN(c3cc(N4CCCC4)nc(N4CCCC4)n3)CC2)c(OC)nc1C`, `CCCN(CCC)c1nc2c(N3CCCC3)nccc2c(=O)[nH]1` is higher in melting point: 162 to 166 °C for the first, 220 °C for the second.

`COC(=O)CC(=O)NCc1cc(Br)cc2[nH]c(=O)c(=O)[nH]c12` and `O=C(CCCOc1ccc2nc3[nH]c(=O)[nH]c3cc2c1)NC1CCCCC1` cannot be ordered by melting point: greater than 300 °C for the first, greater than 320 °C for the second.

Compared with `CC(C)(CCCCCCCCCCCC(C)(C)C(=O)O)C(=O)O`, `CCCCCCCNC(=O)Nc1ccc(OC)cc1C(=O)NCC1CCN(C(c2ccccc2)c2ccccc2)CC1` is higher in melting point: 95 to 96 °C for the first, 189 to 191 °C for the second.

First: CC/C=C\Cn1c(=O)sc2c(N)ncnc21
Second: CCOC(=O)c1cnc2c3ccc(OC)cc3ccn2c1=O
The melting point of the first is lower: 134 to 135 °C for the first, 212 °C for the second.

First: O=C(O)COc1ccc(C(=O)c2ccc(Cl)cc2)c(Cl)c1Cl
Second: Fc1ccc(F)c(C(Sc2ccc(Cl)cc2)c2ccncc2Cl)c1 (configuration not stated)
The melting point of the first is higher: 196 to 198 °C for the first, 70 to 72 °C for the second.

First: COC(=O)C=Cc1ccc2[nH]ccc2c1
Second: CS(=O)(=O)Oc1cc(C=CC(=O)c2ccccc2)cc([N+](=O)[O-])c1OS(C)(=O)=O
The melting point of the first is lower: 138 to 140 °C for the first, 181 to 184 °C for the second.

Compared with `CCc1ccc2oc(C(=O)Nc3ccc(-c4ccc(S(=O)(=O)NC(C(=O)O)C(C)C)cc4)cc3)c(C)c2c1OCc1ccccc1` (configuration not stated), `COc1cc(C(=O)NS(=O)(=O)c2ccccc2)ccc1Cn1ccc2ccc(N)cc21` is lower in melting point: 224 to 226 °C for the first, 151 to 155 °C for the second.

First: COC12CC(C)(c3nc(-c4cncc(Br)c4)no3)CN(C)C1Cc1c(Br)n(C)c3cccc2c13 (configuration not stated)
Second: Cc1cnc(-c2cc(C(F)(F)F)nn2C)nc1Oc1cc(C(F)(F)F)nn1C
The melting point of the first is higher: 167 to 172 °C for the first, 113 °C for the second.

First: CO/C=C(/C(=O)OC)c1ccccc1COc1nc(C(F)(F)F)sc1C
Second: O=C1C(Cc2ccccc2)NC(=S)N1c1nc(C(F)(F)F)cs1 (configuration not stated)
The melting point of the first is lower: 59 °C for the first, 187 to 189 °C for the second.

First: COc1cc(C)c(C=CC(C)=CC=CC(C)=CC(=O)NC(C)C)c(C)c1C
Second: COC(=O)c1[nH]c2c(C)ccc(C)c2c1Cl
The melting point of the first is higher: 200 °C for the first, 115 to 116 °C for the second.

First: COc1ccc(-c2cc(Cl)c3ccc(OC)cc3n2)cc1
Second: COc1cc(Nc2nccc(Nc3ccc(CCO)cc3)n2)cc(OC)c1OC
The melting point of the first is lower: 99 to 101 °C for the first, 172 °C for the second.

Compared with `C=C[C@@H]1O[C@](/C=C/C2CC2)(C(F)(F)F)c2cc(Cl)ccc2NC1=O` (relative stereo), `CC(C#N)(c1ccc(F)cc1)c1ccc(N2NCC(=O)NC2=O)cc1Cl` (configuration not stated) is lower in melting point: 166 °C for the first, 122 °C for the second.

Compared with `Cc1cccc(C(O)c2ccc(N)cc2)n1` (configuration not stated), `Brc1ccc(C=Cc2ccc(Br)cc2)cc1` is higher in melting point: 165 to 166 °C for the first, 213 °C for the second.

First: CCOC(=O)/C(=N\OC1(C)CCCCC1)c1csc(N)n1
Second: O=C(NC1(C(=O)O)CCCC1)C(CS)Cc1ccccc1 (configuration not stated)
The melting point of the first is lower: 126 °C for the first, 165 to 167 °C for the second.

First: CCCc1c(SCCCOc2ccc3c(=O)cc(C(=O)OCC)oc3c2CCC)ccc2c(=O)cc(C(=O)OCC)[nH]c12
Second: C=CC(=O)OCCOc1ccc(-c2nc(-c3ccc(C)cc3C)nc(-c3ccc(C)cc3C)n2)c(O)c1
The melting point of the first is higher: 168 to 170 °C for the first, 128 to 129 °C for the second.

First: O=[N+]([O-])c1ccc(O)c(C=NCCC(F)=C(F)F)c1
Second: CN(CCF)C1CN(c2ccc(N3C[C@H](CN=[N+]=[N-])OC3=O)cc2F)C1
The melting point of the first is higher: 96 to 98 °C for the first, 60 to 63 °C for the second.

First: N#CC1(Nc2cccc(Cl)c2)CCN(C(=O)c2cc(C(F)(F)F)cc(C(F)(F)F)c2)CC1
Second: COC(=O)CCC(=O)Nc1cccc(Oc2nc3ccccc3s2)c1
The melting point of the first is higher: 205 to 207 °C for the first, 78 to 82 °C for the second.

First: CC(C)c1cc(OCCO)cc2c1C(=O)N(COc1nc3ccccn3c(=O)c1Cl)S2(=O)=O
Second: CN(C)CCCNC1=C2N=c3cc(Cl)ccc3=C2Oc2ccccc2N1C
The melting point of the first is higher: 214 to 216 °C for the first, 156 to 157 °C for the second.

Compared with `O=C(Nc1ccc(C(CC2CCCC2)C(=O)Nc2nccs2)cc1)c1ccc([N+](=O)[O-])cc1` (configuration not stated), `CS(=O)(=O)c1ccc(-c2cnn(C3CCCCC3)c(=O)c2-c2ccc(F)cc2)cc1` is lower in melting point: 236 to 238 °C for the first, 169 to 171 °C for the second.

First: CC(C)C(C(=O)O)n1nc(Br)c(Br)c1Br (configuration not stated)
Second: COC(=O)Nc1cc(Cl)nc(NC(=O)OC)n1
The melting point of the first is lower: 92 to 95 °C for the first, 156 to 158 °C for the second.

First: CC(C)(C)OC(=O)NC1CCCCCC=CC2CC2(C(=O)NS(=O)(=O)C2CC2)NC(=O)C2CC(OC(=O)c3ccccn3)CN2C1=O (configuration not stated)
Second: CCN(CC)CCCNC(=S)N(CCS(=O)(=O)c1ccccc1)C(C)C
The melting point of the first is higher: 164 to 166 °C for the first, 120 to 121 °C for the second.
